Test [1] has as its system HCT116 isogenic IDH1-R132C mutant cells. Nature of the test: Cellular 2-HG assay using HCT116 mutant IDH1 cells (R132C). The format is cell-based. Conditions: Homo sapiens, HCT-116; cellular 2-HG inhibition, 24 hours, RapidFire mass spectrometry; read-out: HCT116 IDH1 R132C IC50 Range.
The subject of test [2] is HCT116 isogenic IDH1-R132H mutant cells. As to the kind of experiment: Cellular 2-HG assay using HCT116 mutant IDH1 cells (R132H). As to conditions: Homo sapiens, HCT-116; cellular 2-HG inhibition, 24 hours, RapidFire mass spectrometry; read-out: HCT116 IDH1 R132H IC50 Range. The class given is cell-based.
Test [3] has as its target IDH1-R132C recombinant protein (Homo sapiens, UniProt O75874, R132C). As to the kind of experiment: IDH1-R132C enzymatic assay (NADPH consumption, diaphorase/resazurin readout). The format is biochemical. Conditions: read-out: Enzyme IDH1 R132C IC50 Range. As to the method: Assays were performed in a 384-well black plate. An aliquot of 250 nL of compound was incubated with 10 μL of 30 nM IDH1-R132H or 10 nM IDH1-R132C recombinant protein in assay buffer (50 mM Tris pH=7.5, 150 mM NaCl, 5 mM MgCl2, 0.1% (w/v) Bovine Serum Albumin, and 0.01% Triton X-100) in each well at 25° C. for 15 minutes. After the plate was centrifuged briefly, an aliquot of 10 μL of 2 mM α-ketoglutarate and 20 μM NADPH solution prepared in assay buffer was then added to each well and the reaction was maintained at 25° C. for 45 minutes. An aliquot of 10 μL of diaphorase solution (0.15 U/mL diaphorase and 30 μM Resazurin in assay buffer) was added to each well. […] The IC50 of a given compound was calculated by fitting the dose response curve of inhibition of NADPH consumption at a given concentration with the four parameter logistic equation.

The target in test [4] is IDH1-R132H recombinant protein (Homo sapiens, UniProt O75874, R132H). As to the kind of experiment: IDH1-R132H enzymatic assay (NADPH consumption, diaphorase/resazurin readout). The class given is biochemical. As to conditions: read-out: Enzyme IDH1 R132H IC50 Range. In outline:
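Compound was preincubated 15 min at 25 °C with recombinant IDH1-R132H (30 nM) or IDH1-R132C (10 nM) enzyme solution in 50 mM Tris pH 7.5, 150 mM NaCl, 5 mM MgCl2, 0.1% BSA and 0.01% Triton X-100. A solution of 2 mM α-ketoglutarate and 20 μM NADPH was then added for 45 min at 25 °C. Remaining NADPH was read by diaphorase/resazurin, and IC50 came from a four-parameter logistic fit of NADPH-consumption inhibition.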

Sequence of IDH1-R132C recombinant protein (O75874 whole entry R132C): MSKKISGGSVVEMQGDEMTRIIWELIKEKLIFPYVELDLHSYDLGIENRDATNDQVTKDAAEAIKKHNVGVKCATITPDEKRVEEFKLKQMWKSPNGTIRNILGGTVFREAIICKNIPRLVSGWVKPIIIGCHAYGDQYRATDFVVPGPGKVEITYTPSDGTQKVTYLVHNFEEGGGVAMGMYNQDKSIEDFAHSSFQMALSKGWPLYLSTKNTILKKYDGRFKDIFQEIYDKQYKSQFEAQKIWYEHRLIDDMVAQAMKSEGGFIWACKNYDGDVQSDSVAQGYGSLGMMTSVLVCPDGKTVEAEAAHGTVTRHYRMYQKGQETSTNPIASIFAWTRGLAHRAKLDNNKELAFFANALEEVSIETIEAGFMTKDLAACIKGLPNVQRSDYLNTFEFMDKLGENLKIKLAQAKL
Sequence of IDH1-R132H recombinant protein (O75874 whole entry R132H): as the sequence (O75874 whole entry R132C) above, with C132H counted along it

For the compound `COc1cc(N[C@@H](C)c2cc3cc(Cl)ccc3[nH]c2=O)ccc1C#N` [Compound I-2, 4-{[(1S)-1-(6-chloro-2-oxo-1,2-dihydroquinolin-3-yl)ethyl]amino}-2-methoxybenzonitrile], the IC50 in test [1] is 100 to 1000 nM; in test [2], under 10 nM; in test [3] it was 100 to 1000 nM; in test [4] it was 10 to 100 nM.

With `COc1cc(NCc2cc3cc(Cl)ccc3[nH]c2=O)ccc1C#N` [Compound I-7, 4-{[(6-chloro-2-oxo-1,2-dihydroquinolin-3-yl)methyl]amino}-2-methoxybenzonitrile], the IC50 in test [1] was over 1000 nM; in test [2], 100 to 1000 nM; in test [3], over 1000 nM; in test [4], 100 to 1000 nM.

For `COc1cc(NCc2cc3cc(Cl)c(OCCn4ccnc4)cc3[nH]c2=O)ccc1C#N` [Compound I-89, 4-[({6-chloro-7-[2-(1H-imidazol-1-yl)ethoxy]-2-oxo-1,2-dihydroquinolin-3-yl}methyl)amino]-2-methoxybenzonitrile], the half-inhibitory concentration (IC50) is over 1000 nM in test [3] and 10 to 100 nM in test [4].

Consider `COc1cc(NCc2cc3cc(Cl)c(OCCn4ccnc4C)cc3[nH]c2=O)ccc1C#N` [Compound I-90, 4-[({6-chloro-7-[2-(2-methyl-1H-imidazol-1-yl)ethoxy]-2-oxo-1,2-dihydroquinolin-3-yl}methyl)amino]-2-methoxybenzonitrile], for which the values for the IC50 in test [3] and in test [4] were 100 to 1000 nM and 10 to 100 nM, respectively.

With `COc1cc(NCc2cc3cc(Cl)c(OCCN4CCS(=O)(=O)CC4)cc3[nH]c2=O)ccc1C#N` [Compound I-91, 4-[({6-chloro-7-[2-(1,1-dioxo-1λ^6,4-thiomorpholin-4-yl)ethoxy]-2-oxo-1,2-dihydroquinolin-3-yl}methyl)amino]-2-methoxybenzonitrile], the IC50 was over 1000 nM in test [3] and 100 to 1000 nM in test [4].

In the case of `COc1cc(NCc2cc3cc(Cl)c(OCCn4nc(C)cc4C)cc3[nH]c2=O)ccc1C#N` [Compound I-92, 4-[({6-chloro-7-[2-(3,5-dimethyl-1H-pyrazol-1-yl)ethoxy]-2-oxo-1,2-dihydroquinolin-3-yl}methyl)amino]-2-methoxybenzonitrile], the half-inhibitory concentration (IC50) is over 1000 nM in test [3] and 100 to 1000 nM in test [4].

Turning to `COc1cc(NCc2cc3cc(Cl)c(OC[C@@H]4CCCN4C)cc3[nH]c2=O)ccc1C#N` [Compound I-94, 4-{[(6-chloro-7-{[(2S)-1-methylpyrrolidin-2-yl]methoxy}-2-oxo-1,2-dihydroquinolin-3-yl)methyl]amino}-2-methoxybenzonitrile], the results for the IC50 in test [3] and in test [4] were over 1000 nM and 10 to 100 nM, respectively.

Turning to `COc1cc(NCc2cc3cc(Cl)cc(C)c3[nH]c2=O)ccc1C#N` [Compound I-95, 4-{[(6-chloro-8-methyl-2-oxo-1,2-dihydroquinolin-3-yl)methyl]amino}-2-methoxybenzonitrile], the IC50 was over 1000 nM in test [3] and 100 to 1000 nM in test [4].

For the compound `COc1cc(NCc2cc3cc(Cl)cc(OC)c3[nH]c2=O)ccc1C#N` [Compound I-97, 4-{[(6-chloro-8-methoxy-2-oxo-1,2-dihydroquinolin-3-yl)methyl]amino}-2-methoxybenzonitrile], the IC50 was over 1000 nM in test [3] and 100 to 1000 nM in test [4].

On to `COc1cc(NCc2cc3cc(Cl)cc(OCc4ccccn4)c3[nH]c2=O)ccc1C#N` [Compound I-98, 4-({[6-chloro-2-oxo-8-(pyridin-2-ylmethoxy)-1,2-dihydroquinolin-3-yl]methyl}amino)-2-methoxybenzonitrile], for which the IC50 in test [3] is over 1000 nM; in test [4] it was 10 to 100 nM.

As for `COc1cc(NCc2cc3cc(Cl)cc(OCCN4CCOCC4)c3[nH]c2=O)ccc1C#N` [Compound I-99, 4-[({6-chloro-8-[2-(morpholin-4-yl)ethoxy]-2-oxo-1,2-dihydroquinolin-3-yl}methyl)amino]-2-methoxybenzonitrile], the IC50 in test [3] was over 1000 nM; in test [4], 100 to 1000 nM.

In the case of `COc1cc(NCc2cc3cc(Cl)cc(OCCN4CCCC4)c3[nH]c2=O)ccc1C#N` [Compound I-100, 4-[({6-chloro-2-oxo-8-[2-(pyrrolidin-1-yl)ethoxy]-1,2-dihydroquinolin-3-yl}methyl)amino]-2-methoxybenzonitrile], the IC50 in test [3] was over 1000 nM; in test [4] it was 100 to 1000 nM.
